{"source": "patent US11998539B2", "about": "“Substituted aminoquinolones as DGKalpha inhibitors for immune activation” (Bayer Aktiengesellschaft, priority 2019, dated 2024)"}
{"molecular_target": "DGKα (Homo sapiens (Human), UniProt P23743)", "sequence (P23743 other isoform, or with tags, fused parts or gaps)": "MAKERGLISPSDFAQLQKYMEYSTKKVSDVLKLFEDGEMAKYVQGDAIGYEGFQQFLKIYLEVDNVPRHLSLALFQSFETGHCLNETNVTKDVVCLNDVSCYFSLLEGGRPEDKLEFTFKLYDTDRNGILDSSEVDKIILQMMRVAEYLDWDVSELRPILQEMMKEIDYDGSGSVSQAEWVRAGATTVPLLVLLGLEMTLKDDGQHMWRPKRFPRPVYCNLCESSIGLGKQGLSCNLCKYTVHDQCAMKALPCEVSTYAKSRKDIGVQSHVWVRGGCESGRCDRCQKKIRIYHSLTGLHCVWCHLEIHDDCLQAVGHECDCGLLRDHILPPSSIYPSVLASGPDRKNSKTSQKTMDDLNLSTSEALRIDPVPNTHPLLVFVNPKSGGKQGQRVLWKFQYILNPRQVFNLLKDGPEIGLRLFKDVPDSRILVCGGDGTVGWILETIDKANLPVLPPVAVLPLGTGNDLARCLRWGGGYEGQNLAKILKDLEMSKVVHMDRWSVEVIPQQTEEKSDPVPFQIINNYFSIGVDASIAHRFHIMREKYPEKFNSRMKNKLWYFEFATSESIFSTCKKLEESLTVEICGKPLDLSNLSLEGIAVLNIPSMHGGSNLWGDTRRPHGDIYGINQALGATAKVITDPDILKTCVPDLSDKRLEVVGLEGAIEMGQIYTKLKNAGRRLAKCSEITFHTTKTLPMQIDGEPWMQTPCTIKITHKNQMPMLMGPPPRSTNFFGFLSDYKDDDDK", "test": "Human DGKα kinase activity inhibition assay (ADP-Glo)", "type": "biochemical", "conditions": "recombinant full-length human DGKα, 55 μM ATP, 7 μM 1,2-dioleoyl-sn-glycerol, read-out: IC50 values of examples in in vitro human DGKa kinase activity inhibition assays", "description": "Human DGKα Kinase Activity Inhibition Assay\nHuman DGKα inhibitory activity of compounds of the present invention was quantified employing the human DGKα kinase activity assay as described in the following paragraphs. In essence, the enzyme activity was measured by quantification of the adenosine-di-phosphate (ADP) generated as a co-product of the enzyme reaction via the “ADP-Glo™ Kinase Assay” kit from the company Promega. This detection system works as follows: In a first step the ATP not consumed in the kinase reaction is quantitatively converted to cAMP employing an adenylate cyclase (“ADP-Glo-reagent”), then the adenylate cyclase is stopped and the ADP generated in the kinase reaction converted to ATP, which subsequently generates in a luciferase-based reaction a glow-luminescence signal (“Kinase Detection Reagent”).\nC-terminally FLAG-tagged, recombinant full-length human DGKα (expressed in baculovirus infected insect cells, purified using anti-Flag pulldown and size exclusion chromatography as described below, DGKa_hu_1) was used as enzyme. As substrate for the kinase 1,2-dioleoyl-sn-glycerol, reconstituted in octyl-β-D-glucopyranoside micelles, was used. […] Then 35 volumes of 50 mM MOPS buffer (pH 7.4) were added to yield a solution of 0.28 mM 1,2 dioleoyl-sn-glycerol and 200 mM […], which was aliquoted, flash-frozen in liquid nitrogen, and stored at −20° C. until use.\nFor the assay 50 nl of a 100-fold concentrated solution of the test compound in dimethyl sulfoxide (DMSO, Sigma) was pipetted into either a white 1536-well or a white low-volume 384-well microtiter plate (both Greiner Bio-One, Frickenhausen, Germany).", "units": {"IC50": "nM"}}
{"molecule": "Cc1ccc2c(c1)c(N1CCC(c3nc4cc(C(C)C)ccc4o3)CC1)c(C(N)=O)c(=O)n2C", "note": "[Example 200, 1,6-dimethyl-2-oxo-4-{4-[5-(propan-2-yl)-1,3-benzoxazol-2-yl]piperidin-1-yl}-1,2-dihydroquinoline-3-carboxamide]", "IC50": 3.9}
{"molecule": "Cn1c(=O)c(C(N)=O)c(N2CCC(c3nc4ccccc4s3)CC2)c2ccccc21", "note": "[Example 113, 4-[4-(1,3-benzothiazol-2-yl)piperidin-1-yl]-1-methyl-2-oxo-1,2-dihydroquinoline-3-carboxamide]", "IC50": 3.5}
{"molecule": "Cc1ccc2oc(C3(C)CCN(c4c(C#N)c(=O)n(C)c5cc(N6C[C@H](O)CC6=O)ccc45)CC3)nc2c1", "note": "[Example 269, 7-[(4R)-4-hydroxy-2-oxopyrrolidin-1-yl]-1-methyl-4-[4-methyl-4-(5-methyl-1,3-benzoxazol-2-yl)piperidin-1-yl]-2-oxo-1,2-dihydroquinoline-3-carbonitrile]", "IC50": 71}
{"molecule": "Cc1ccc2oc(C3(C)CCN(c4c(C#N)c(=O)n(C)c5c(Br)cccc45)CC3)nc2c1", "note": "[Example 158, 8-bromo-1-methyl-4-[4-methyl-4-(5-methyl-1,3-benzoxazol-2-yl)piperidin-1-yl]-2-oxo-1,2-dihydroquinoline-3-carbonitrile]", "IC50": 304}
{"molecule": "Cc1cc(C2(C)CCN(c3c(C#N)c(=O)n(C)c4ccccc34)CC2)nc2ccccc12", "note": "[Example 364, 1-methyl-4-[4-methyl-4-(4-methylquinolin-2-yl)piperidin-1-yl]-2-oxo-1,2-dihydroquinoline-3-carbonitrile]", "IC50": 34}
{"molecule": "Cc1cc(C2(C)CCN(c3c(C(N)=O)c(=O)n(C)c4ccccc34)CC2)nc2ccccc12", "note": "[Example 470, 1-methyl-4-[4-methyl-4-(4-methylquinolin-2-yl)piperidin-1-yl]-2-oxo-1,2-dihydroquinoline-3-carboxamide]", "IC50": 13}
{"molecule": "Cn1c(=O)c(C#N)c(N2CCC(c3cccc(NC(=O)c4ccccc4)c3)CC2)c2ccccc21", "note": "[Example 76, N-{3-[1-(3-cyano-1-methyl-2-oxo-1,2-dihydroquinolin-4-yl)piperidin-4-yl]phenyl}benzamide]", "IC50": 50}
{"molecule": "Cc1ccc2oc(C3(C)CCN(c4c(C#N)c(=O)n(C)c5cc(NC6CC6)ccc45)CC3)nc2c1", "note": "[Example 418, 7-(cyclopropylamino)-1-methyl-4-[4-methyl-4-(5-methyl-1,3-benzoxazol-2-yl)piperidin-1-yl]-2-oxo-1,2-dihydroquinoline-3-carbonitrile]", "IC50": 1.4}
{"molecule": "Cn1c(=O)c(C(N)=O)c(N2CCC(C)(c3nc4ccccc4o3)CC2)c2cccc(Cl)c21", "note": "[Example 310, 4-[4-(1,3-benzoxazol-2-yl)-4-methylpiperidin-1-yl]-8-chloro-1-methyl-2-oxo-1,2-dihydroquinoline-3-carboxamide]", "IC50": 34}
{"molecule": "Cc1ccccc1-n1ccc(C2CCN(c3c(C(N)=O)c(=O)n(C)c4ccccc34)CC2)n1", "note": "[Example 473, 1-methyl-4-{4-[1-(2-methylphenyl)-1H-pyrazol-3-yl]piperidin-1-yl}-2-oxo-1,2-dihydroquinoline-3-carboxamide]", "IC50": 23}
{"molecule": "Cc1ccc2oc(C3(C)CCN(c4c(C(N)=O)c(=O)n(C)c5ccc(N6C[C@H](O)CC6=O)cc45)CC3)nc2c1", "note": "[Example 280, 6-[(4R)-4-hydroxy-2-oxopyrrolidin-1-yl]-1-methyl-4-[4-methyl-4-(5-methyl-1,3-benzoxazol-2-yl)piperidin-1-yl]-2-oxo-1,2-dihydroquinoline-3-carboxamide]", "IC50": 4740}
{"molecule": "Cn1c(=O)c(C#N)c(N2CCC(C)(c3nc4ccccc4o3)CC2)c2ccc(F)cc21", "note": "[Example 235, 4-[4-(1,3-benzoxazol-2-yl)-4-methylpiperidin-1-yl]-7-fluoro-1-methyl-2-oxo-1,2-dihydroquinoline-3-carbonitrile]", "IC50": 2.9}
{"molecule": "COCCc1cccc2oc(C3CCN(c4c(C(N)=O)c(=O)n(C)c5ccccc45)CC3)nc12", "note": "[Example 315, 4-{4-[4-(2-methoxyethyl)-1,3-benzoxazol-2-yl]piperidin-1-yl}-1-methyl-2-oxo-1,2-dihydroquinoline-3-carboxamide]", "IC50": 46}
{"molecule": "COCCc1ccc2oc(C3CCN(c4c(C(N)=O)c(=O)n(C)c5ccccc45)CC3)nc2c1", "note": "[Example 295, 4-{4-[5-(2-methoxyethyl)-1,3-benzoxazol-2-yl]piperidin-1-yl}-1-methyl-2-oxo-1,2-dihydroquinoline-3-carboxamide]", "IC50": 9.5}
{"molecule": "Cn1c(=O)c(C#N)c(N2CCC(c3nc4ccccc4s3)CC2)c2cccc(F)c21", "note": "[Example 154, 4-[4-(1,3-benzothiazol-2-yl)piperidin-1-yl]-8-fluoro-1-methyl-2-oxo-1,2-dihydroquinoline-3-carbonitrile]", "IC50": 34}
{"molecule": "Cc1ccc2c(N3CCC(C)(c4nc5ccccc5o4)CC3)c(C(N)=O)c(=O)n(C)c2c1", "note": "[Example 311, 4-[4-(1,3-benzoxazol-2-yl)-4-methylpiperidin-1-yl]-1,7-dimethyl-2-oxo-1,2-dihydroquinoline-3-carboxamide]", "IC50": 1.2}
{"molecule": "Cn1c(=O)c(C#N)c(N2CCC(c3ccccc3F)CC2)c2ccccc21", "note": "[Example 60, 4-[4-(2-fluorophenyl)piperidin-1-yl]-1-methyl-2-oxo-1,2-dihydroquinoline-3-carbonitrile]", "IC50": 33}
{"molecule": "Cn1c(=O)c(C#N)c(N2CCC(c3nc4ccccc4o3)CC2)c2ccc(N3CCCC3=O)cc21", "note": "[Example 35, 4-[4-(1,3-benzoxazol-2-yl)piperidin-1-yl]-1-methyl-2-oxo-7-(2-oxopyrrolidin-1-yl)-1,2-dihydroquinoline-3-carbonitrile]", "IC50": 7.8}
{"molecule": "COCCOc1ccc2c(N3CCC(c4nc5cc(C)ccc5o4)CC3)c(C(N)=O)c(=O)n(C)c2c1", "note": "[Example 480, 7-(2-methoxyethoxy)-1-methyl-4-[4-(5-methyl-1 3-benzoxazol-2-yl)piperidin-1-yl]-2-oxo-1,2-dihydroquinoline-3-carboxamide]", "IC50": 9.8}
{"molecule": "COc1ccc2c(c1)c(N1CCC(c3nc4cc(C)ccc4o3)CC1)c(C(N)=O)c(=O)n2C", "note": "[Example 501, 6-methoxy-1-methyl-4-[4-(5-methyl-1,3-benzoxazol-2-yl)piperidin-1-yl]-2-oxo-1,2-dihydroquinoline-3-carboxamide]", "IC50": 21}
{"molecule": "Cn1c(=O)c(C#N)c(N2CCC(c3nc4cc(F)c(F)cc4o3)CC2)c2ccccc21", "note": "[Example 22, 4-[4-(5,6-difluoro-1,3-benzoxazol-2-yl)piperidin-1-yl]-1-methyl-2-oxo-1,2-dihydroquinoline-3-carbonitrile]", "IC50": 6}
{"molecule": "COc1ccccc1-c1csc(C2CCN(c3c(C#N)c(=O)n(C)c4ccccc34)CC2)n1", "note": "[Example 373, 4-{4-[4-(2-methoxyphenyl)-1,3-thiazol-2-yl]piperidin-1-yl}-1-methyl-2-oxo-1,2-dihydroquinoline-3-carbonitrile]", "IC50": 9.9}
{"molecule": "CC(C)Oc1ccc(C2CCN(c3c(C(N)=O)c(=O)n(C)c4ccccc34)CC2)cc1", "note": "[Example 102, 1-methyl-2-oxo-4-(4-{4-[(propan-2-yl)oxy]phenyl}piperidin-1-yl)-1,2-dihydroquinoline-3-carboxamide]", "IC50": 0.3}
{"molecule": "Cn1c(=O)c(C#N)c(N2CCC(c3nc4ccccc4o3)CC2)c2cccc(Br)c21", "note": "[Example 161, 4-[4-(1,3-benzoxazol-2-yl)piperidin-1-yl]-8-bromo-1-methyl-2-oxo-1,2-dihydroquinoline-3-carbonitrile]", "IC50": 1100}
{"molecule": "Cn1c(=O)oc2cc(C3CCN(c4c(C#N)c(=O)n(C)c5ccccc45)CC3)ccc21", "note": "[Example 362, 1-methyl-4-[4-(3-methyl-2-oxo-2,3-dihydro-1,3-benzoxazol-6-yl)piperidin-1-yl]-2-oxo-1,2-dihydroquinoline-3-carbonitrile]", "IC50": 106}
{"molecule": "Cn1c(=O)c(C#N)c(N2CCC(c3ccn(-c4ccc(Cl)cc4)n3)CC2)c2ccccc21", "note": "[Example 369, 4-{4-[1-(4-chlorophenyl)-1H-pyrazol-3-yl]piperidin-1-yl}-1-methyl-2-oxo-1,2-dihydroquinoline-3-carbonitrile]", "IC50": 14}
{"molecule": "CCC1(c2nc3cc(C)ccc3o2)CCN(c2c(C#N)c(=O)n(C)c3cc(Br)ccc23)CC1", "note": "[Example 141, 7-bromo-4-[4-ethyl-4-(5-methyl-1,3-benzoxazol-2-yl)piperidin-1-yl]-1-methyl-2-oxo-1,2-dihydroquinoline-3-carbonitrile]", "IC50": 5.6}
{"molecule": "Cc1ccc2oc(C3(C)CCN(c4c(C#N)c(=O)n(C)c5ccc(S(C)(=O)=O)cc45)CC3)nc2c1", "note": "[Example 182, 6-(methanesulfonyl)-1-methyl-4-[4-methyl-4-(5-methyl-1,3-benzoxazol-2-yl)piperidin-1-yl]-2-oxo-1,2-dihydroquinoline-3-carbonitrile]", "IC50": 47}
{"molecule": "Cn1c(=O)c(C#N)c(N2CCC(c3ccccc3)CC2)c2ccc(OC3CC3)cc21", "note": "[Example 264, 7-(cyclopropyloxy)-1-methyl-2-oxo-4-(4-phenylpiperidin-1-yl)-1,2-dihydroquinoline-3-carbonitrile]", "IC50": 49}
{"molecule": "Cn1nccc1C1CCN(c2c(C#N)c(=O)n(C)c3ccccc23)CC1", "note": "[Example 149, 1-methyl-4-[4-(1-methyl-1H-pyrazol-5-yl)piperidin-1-yl]-2-oxo-1,2-dihydroquinoline-3-carbonitrile]", "IC50": 1100}
